Test results reported in the OPERA property sets (Mansouri et al. 2018).

Question: For `ClC1CC2CCC1C2` (stereo unspecified), which logP is on record?
Answer: 3.35

Question: For `OC1CC2CCC1C2` (stereo unspecified), which logP is on record?
Answer: 1.45

Question: For `C1=CC2C=CC1C2`, which logP is on record?
Answer: 2.67

Question: For `OC(C1CC1)C1CC1`, which logP is on record?
Answer: 1.07

Question: Which logP does the source give for `BrC1C2CC3C(C2)C13` (stereo unspecified) here?
Answer: 3.11

Question: For `OCC1CC2CCC1C2` (stereo unspecified), which logP is on record?
Answer: 1.99

Question: Which logP does the source give for `O=C1C2CC3C(C2)C13` here?
Answer: 0.81

Question: With `OC1C2CCC(C2)C1O` (stereo unspecified) as the compound, how does the logP read?
Answer: 0.4

Question: With `BrC1CC2CCC1C2` (stereo unspecified) as the compound, how does the logP read?
Answer: 3.54

Question: Which logP does the source give for `OC1C2CC3C1C3C2O` (stereo unspecified) here?
Answer: -0.42

Question: With `OC1CC2C=CC1C2` (stereo unspecified) as the compound, how does the logP read?
Answer: 0.99

Question: For `C1=CC2CCC1C2`, which logP is on record?
Answer: 3.24

Question: For `C1CC2CCC1C2`, which logP is on record?
Answer: 3.78

Question: With `OC1CC2CCC1C2O` (stereo unspecified) as the compound, how does the logP read?
Answer: 0.4

Question: For `C1C2C3C2C2C1C32` (stereo unspecified), which logP is on record?
Answer: 2.9

Question: With `C1CC2CC1C1OC21` (stereo unspecified) as the compound, how does the logP read?
Answer: 1.58
